From article PMC10191376, “Characterization of the L-arabinofuranose-specific GafABCD ABC transporter essential for L-arabinose-dependent growth of the lignocellulose-degrading bacterium Shewanella sp. ANA-3” (Microbiology, 2023)
Values belong to the compound of their own block, whether it stands above or below them.

What was measured:
[1] = target: GafASw (Shewana3_2073); assay: ITC, intrinsic fluorescence ([…]), DSF; format: binding, Shewanella sp. ANA-3
[2] = target: T1, GafASm (Smb_21587) (Sinorhizobium meliloti, UniProt Q926G2); assay: DSF thermal shift (ΔTm […] °C at […]); format: binding; conditions: read-out: ΔT m (°C) at 1.2 mM [ligand] / GafASm
T1 construct: gene SM_b21587

[3] = target: T1, GafASm (Smb_21587); assay: DSF thermal shift (ΔTm […] °C at […]); format: binding; conditions: read-out: ΔT m (°C) at 1.2 mM [ligand] / GafASm; remark: listed apart in the source
[4] = target: T1, GafASm (Smb_21587); assay: DSF thermal shift (ΔTm […] °C at […]), weak; format: binding; conditions: read-out: ΔT m (°C) at 1.2 mM [ligand] / GafASm
[5] = target: GafASw (Shewana3_2073); assay: crystal structure ([…] Å), ITC, intrinsic fluorescence, DSF; format: binding, Shewanella sp. ANA-3
[6] = target: T1, GafASm (Smb_21587); assay: DSF thermal shift (ΔTm […] °C at […]); format: binding; conditions: read-out: ΔT m (°C) at 1.2 mM [ligand] / GafASm; remark: listed apart in the source

T1 sequence (Q926G2 entry or part of it): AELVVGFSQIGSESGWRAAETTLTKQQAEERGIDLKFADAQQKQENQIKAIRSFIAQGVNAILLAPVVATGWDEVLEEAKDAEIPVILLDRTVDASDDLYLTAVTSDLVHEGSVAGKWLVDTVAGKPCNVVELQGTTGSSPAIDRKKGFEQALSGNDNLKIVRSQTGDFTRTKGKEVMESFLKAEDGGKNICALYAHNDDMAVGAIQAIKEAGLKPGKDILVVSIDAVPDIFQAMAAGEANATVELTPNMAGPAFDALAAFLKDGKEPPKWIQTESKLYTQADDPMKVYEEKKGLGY

SMILES: OC[C@H]1OC(O)[C@H](O)[C@H](O)[C@@H]1O (stereo partly drawn) [D-allose]
Kd [1]: 27.4 ± 4.32 µM

SMILES: C[C@H]1OC(O)[C@H](O)[C@@H](O)[C@H]1O (stereo partly drawn) [D-fucose]
ΔTm at 1200 µM [2]: 11.8 ± 0.2 °C

SMILES: OC[C@H]1OC(O)[C@H](O)[C@@H](O)[C@H]1O (stereo partly drawn) [D-galactose]
ΔTm at 1200 µM [3]: 11.6 ± 0.2 °C

SMILES: OC[C@@H]1OC(O)[C@H](O)[C@H]1O (stereo partly drawn) [L-arabinofuranose]
Kd [5]: 5.8 ± 0.51 µM

More lines, now with the values ahead:

ΔTm at 1200 µM [4]: 3.4 ± 0.2 °C
SMILES: OC[C@H]1OC(O)[C@@H](O)[C@@H](O)[C@H]1O (stereo partly drawn) [D-talose]

ΔTm at 1200 µM [6]: 14.4 ± 0.2 °C
SMILES: OC1OC[C@H](O)[C@H](O)[C@H]1O (stereo partly drawn) [L-arabinose]
